Measurements taken from patent publication US9247744B2, “Ternary pesticidal mixtures” (BASF SE, priority 2006, dated 2016).

Key:
Assay type in all cases: in vivo
[1] = system: vetch aphid (Megoura viciae); experiment: control of vetch aphid on broad bean leaf disks, 24-well microtiter plates; settings: sprayed on leaf disks, mortality and fecundity after 5 days
Procedure: (§1) The analysis of synergism or antagonism between the mixtures or compositions was determined using Colby's equation.
For evaluating control of vetch aphid (Megoura viciae) through contact or systemic means the test unit consisted of 24-well-microtiter plates containing broad bean leaf disks.
The compounds or mixtures were formulated using a solution containing 75% water and 25% DMSO. Different concentrations of formulated compounds or mixtures were sprayed onto the leaf disks at 2.5 μl, using a custom built micro atomizer, at two replications.
(§2) For experimental mixtures in these tests identical volumes of both mixing partners at the desired concentrations respectively, were mixed together.
After application, the leaf disks were air-dried and 5-8 adult aphids placed on the leaf disks inside the microtiter plate wells. The aphids were then allowed to suck on the treated leaf disks and incubated at 23±1° C., 50±5% RH for 5 days. Aphid mortality and fecundity was then visually assessed.
In this test the compound 1-2, and N-(3′,4′-dichloro-5-fluorobiphenyl-2-yl)-3-difluoromethyl-1-methylpyrazole-4-carboxamide (compound 2.1) and 5-chloro-7-(4-methyl-piperidin-1-yl)-6-(2,4,6-trifluorophenyl)-[1,2,4]triazolo[1,5-a]pyrimidine (compound 2.2) were used.

[2] = system: boll weevil (Anthonomus grandis); experiment: control of boll weevil, insect diet with eggs, 24-well microtiter plates; settings: sprayed on insect diet, egg and larval mortality after 5 days
Procedure: as §1
For evaluating control of boll weevil (Anthonomus grandis) the test unit consisted of 24-well-microtiter plates containing an insect diet and 20-30 A. grandis eggs.
(§3) The compounds or mixtures were formulated using a solution containing 75% water and 25% DMSO. Different concentrations of formulated compounds or mixtures were sprayed onto the insect diet at 20 μl, using a custom built micro atomizer, at two replications.
as §2
After application, microtiter plates were incubated at 23±1° C., 50±5% RH for 5 days. Egg and larval mortality was then visually assessed.
In this test the compound 1-2, and prochloraz, pyraclostrobin, N-[2-(1,1,2,3,3,3-hexafluoropropoxy)-phenyl]-3-difluoromethyl-1-methyl-1H-pyrazole-4-carboxamide (compound 3.1), and N-(3′,4′,5′-trifluorobiphenyl-2-yl)-1-methyl-3-difluoromethyl-1H-pyrazole-4-carboxamide (compound 3.2), resp., were used.

[3] = system: tobacco budworm (Heliothis virescens); experiment: control of tobacco budworm, insect diet with eggs, 96-well microtiter plates; settings: sprayed on insect diet, egg and larval mortality after 5 days
Procedure: as §1
as §3, with “For evaluating control of tobacco budworm (Heliothis virescens) the test unit consisted of 96-well-microtiter plates containing an insect diet and 15-25 H. virescens eggs. The” for “The”, “10” for “20”
as §2
After application, microtiter plates were incubated at 28±1° C., 80±5% RH for 5 days. Egg and larval mortality was then visually assessed.
In this test the compound I-2, and prochloraz, and pyraclostrobin, resp., were used.

[4] = system: green peach aphid (Myzus persicae); experiment: control of green peach aphid through systemic means, artificial diet under membrane; settings: pipetted into aphid diet, mortality and fecundity after 3 days
Procedure: as §1
For evaluating control of green peach aphid (Myzus persicae) through systemic means the test unit consisted of 96-well-microtiter plates containing liquid artificial diet under an artificial membrane.
The compounds or mixtures were formulated using a solution containing 75% water and 25% DMSO. Different concentrations of formulated compounds or mixtures were pipetted into the aphid diet, using a custom built pipetter, at two replications.
as §2
After application, 5-8 adult aphids were placed on the artificial membrane inside the microtiter plate wells. The aphids were then allowed to suck on the treated aphid diet and incubated at 23±1° C., 50±5% RH for 3 days. Aphid mortality and fecundity was then visually assessed.
In this test the compound 1-2, and orysastrobin, and 5-chloro-7-(4-methylpiperidin-1-yl)-6-(2,4,6-trifluorophenyl)-[1,2,4]triazolo[1,5-a]pyrimidine (compound 2.2), and N-[2-(1,1,2,3,3,3-hexafluoropropoxy)-phenyl]-3-difluoromethyl-1-methyl-1H-pyrazole-4-carboxamide (compound 3.1), were used.

## CNC(=O)c1cc(C#N)cc(C)c1NC(=O)c1cc(Br)nn1-c1ncccc1Cl [I-2]
[1]; 0.5 ppm
  Average Control %: 0%
[1]; 2.5 ppm
  Average Control %: 0%
[2]; 0.5 ppm
  Average Control %: 0%
[3]; 0.5 ppm
  Average Control %: 0%
[3]; 2.5 ppm
  Average Control %: 37.5%
[4]; 0.5 ppm
  Average Control %: 0%

## Cn1cc(C(=O)Nc2ccc(F)cc2-c2ccc(Cl)c(Cl)c2)c(C(F)F)n1 [compound 2.1, N-(3′,4′-dichloro-5-fluorobiphenyl-2-yl)-3-difluoromethyl-1-methylpyrazole-4-carboxamide]
[1]; 1000 ppm
  Average Control %: 0%

## Cn1cc(C(=O)Nc2ccccc2-c2cc(F)c(F)c(F)c2)c(C(F)F)n1 [compound 3.2, N-(3′,4′,5′-trifluorobiphenyl-2-yl)-1-methyl-3-difluoromethyl-1H-pyrazole-4-carboxamide]
[2]; 200 ppm
  Average Control %: 0%

## CNC(=O)/C(=N/OC)c1ccccc1CO/N=C(C)/C(=N/OC)C(/C)=N/OC [orysastrobin, (2E)-2-(methoxyimino)-2-{2-[(3E,5E,6E)-5-(methoxyimino)-4,6-dimethyl-2,8-dioxa-3,7-diazanona-3,6-dien-1-yl]phenyl}-N-methylacetamide]
[4]; 40 ppm
  Average Control %: 0%

## COC(=O)N(OC)c1ccccc1COc1ccn(-c2ccc(Cl)cc2)n1 [pyraclostrobin, methyl N-{2-[1-(4-chlorophenyl)-1/pyrazol-3-yloxymethyl]phenyl}(N-methoxy)carbamate]
[2]; 40 ppm
  Average Control %: 0%
[3]; 200 ppm
  Average Control %: 0%
[4]; 8 ppm
  Average Control %: 0%
